Assay results as given in US8563545B2, “Compound useful for the treatment of degenerative and inflammatory diseases” (Galapagos NV, priority 2009, dated 2013).
Read-outs that look alike come from different tables or passages of the source.

Tests used:
[1] = Steady state PK in rat CIA model; assay type: in vivo; conditions: plasma; for AUC(0-t): read-out: AUC (0-24 h); for half-life: read-out: T½ (converted)
Procedure: At day 7 or 11, blood samples were collected at the retro-orbital sinus with lithium heparin as anti-coagulant at the following time points: predose, 1, 3 and 6 hrs. Whole blood samples were centrifuged and the resulting plasma samples were stored at −20° C. pending analysis. Plasma concentrations of each test compound were determined by an LC-MS/MS method in which the mass spectrometer was operated in positive electrospray mode. Pharmacokinetic parameters were calculated using Winnonlin® (Pharsight®, United States) and it was assumed that the predose plasma levels were equal to the 24 hrs plasma levels.

[2] = tested on: rat CIA model; experiment: Rat collagen induced arthritis (CIA) model; assay type: in vivo; parameters: key to Clinical Assessment End point score / Clinical Assessment AUC Score / Paw swelling / Larsen' Score: a “*” indicates that there was a statistically significant improvement in the score, p 0.05 vs. untreated control
Procedure: Completed Freund's adjuvant (CFA) and incomplete Freund's adjuvant (IFA) were purchased from Difco. Bovine collagen type II (CII), lipopolysaccharide (LPS), and Enbrel was obtained from Chondrex (Isle d'Abeau, France); Sigma (P4252, L′Isle d'Abeau, France), Whyett (25 mg injectable syringe, France) Acros Organics (Palo Alto, Calif.), respectively. All other reagents used were of reagent grade and all solvents were of analytical grade.
Dark Agouti rats (male, 7-8 weeks old) were obtained from Harlan Laboratories (Maison-Alfort, France). Rats were kept on a 12 hr light/dark cycle (0700-1900). Temperature was maintained at 22° C., and food and water were provided ad libitum.
One day before the experiment, CII solution (2 mg/mL) was prepared with 0.05 M acetic acid and stored at 4° C. Just before the immunization, equal volumes of adjuvant (IFA) and CII were mixed by a homogenizer in a pre-cooled glass bottle in an ice water bath. Extra adjuvant and prolonged homogenization may be required if an emulsion is not formed. 0.2 mL of the emulsion was injected intradermally at the base of the tail of each rat on day 1, a second booster intradermal injection (CII solution at 2 mg/mL in CFA 0.1 mL saline) was performed on day 9. This immunization method was modified from published methods (Sims et al, 2004; Jou et al., 2005).
The therapeutic effects of the compounds were tested in the rat CIA model. Rats were randomly divided into equal groups and each group contained 10 rats. All rats were immunized on day 1 and boosted on day 9. Therapeutic dosing lasted from day 16 to day 30. The negative control group was treated with vehicle (MC 0.5%) and the positive control group with Enbrel (10 mg/kg, 3× week, s.c.). A compound of interest was typically tested at 3 doses, e.g. 3, 10, 30 mg/kg, p.o.
Arthritis is scored according to the method of Khachigian 2006, Lin et al 2007 and Nishida et al. 2004). The swelling of each of the four paws is ranked with the arthritic score as follows: 0-no symptoms; 1-mild, but definite redness and swelling of one type of joint such as the ankle or wrist, or apparent redness and swelling limited to individual digits, regardless of the number of affected digits; 2-moderate redness and swelling of two or more types of joints; 3-severe redness and swelling of the entire paw including digits; 4-maximally inflamed limb with involvement of multiple joints (maximum cumulative clinical arthritis score 16 per animal) (Nishida et al., 2004).
The area under the curve (AUC) from day 1 to day 14 was calculated for each individual rat. The AUC of each animal was divided by the average AUC obtained for the vehicle in the study from which the data on that animal was obtained and multiplied by 100 (i.e. the AUC was expressed as a percentage of the average vehicle AUC per study).
The clinical score difference for each animal was divided by the average clinical score difference obtained for the vehicle in the study from which the data on that animal was obtained and multiplied by 100 (i.e. the difference was expressed as a percentage of the average clinical score difference for the vehicle per study).
X-ray photos were taken of the hind paws of each individual animal. […]

[3] = target: TYK2 (Homo sapiens (Human), UniProt P29597); experiment: TYK2 inhibition assay; assay type: biochemical
Sequence of TYK2 (P29597 871-1187): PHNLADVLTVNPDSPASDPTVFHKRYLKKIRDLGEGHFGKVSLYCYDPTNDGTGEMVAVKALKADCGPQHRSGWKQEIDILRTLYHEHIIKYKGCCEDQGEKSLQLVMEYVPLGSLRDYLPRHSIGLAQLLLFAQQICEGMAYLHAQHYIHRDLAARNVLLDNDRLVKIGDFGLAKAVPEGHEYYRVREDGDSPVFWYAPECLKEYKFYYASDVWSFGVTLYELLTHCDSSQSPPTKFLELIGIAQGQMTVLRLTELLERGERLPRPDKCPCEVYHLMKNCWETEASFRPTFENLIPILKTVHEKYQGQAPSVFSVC
Procedure: After 90 min at 30° C., reactions were stopped by adding 25 μL/well of 150 mM phosphoric acid. […] Plates were washed 6 times with 300 μL per well of a 75 mM phosphoric acid solution and the bottom of the plates was sealed. 40 μL/well of Microscint-20 was added, the top of the plates was sealed and readout was performed using the Topcount (Perkin Elmer). Kinase activity was calculated by subtracting counts per minute (cpm) obtained in the presence of a positive control inhibitor (10 μM staurosporine) from cpm obtained in the presence of vehicle. The ability of a test compound to inhibit this activity was determined as:
(§1) Percentage inhibition=((cpm determined for sample with test compound present−cpm determined for sample with positive control inhibitor)divided by(cpm determined in the presence of vehicle−cpm determined for sample with positive control inhibitor))*100.
Dose dilution series were prepared for the compounds enabling the testing of dose-response effects in the TYK2 assay and the calculation of the IC50 for each compound.

[4] = target: JAK3 (Homo sapiens (Human), UniProt P52333); experiment: JAK3 inhibition assay; assay type: biochemical
Sequence of JAK3 (P52333 781-1124): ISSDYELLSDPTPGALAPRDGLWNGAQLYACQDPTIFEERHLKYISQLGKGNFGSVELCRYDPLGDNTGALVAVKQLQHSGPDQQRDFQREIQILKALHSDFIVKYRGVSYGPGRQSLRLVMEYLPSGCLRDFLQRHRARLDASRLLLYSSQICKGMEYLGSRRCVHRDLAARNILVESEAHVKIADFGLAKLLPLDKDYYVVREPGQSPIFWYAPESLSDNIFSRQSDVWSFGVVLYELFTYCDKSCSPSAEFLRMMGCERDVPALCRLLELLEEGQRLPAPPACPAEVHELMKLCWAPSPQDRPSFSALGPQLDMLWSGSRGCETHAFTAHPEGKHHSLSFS
Procedure: (§2) Plates were washed 6 times with 300 μL per well of a 75 mM phosphoric acid solution and the bottom of the plates was sealed. 40 μL/well of Microscint-20 was added, the top of the plates was sealed and readout was performed using the Topcount (Perkin Elmer). Kinase activity was calculated by subtracting counts per minute (cpm) obtained in the presence of a positive control inhibitor (10 μM staurosporine) from cpm obtained in the presence of vehicle. The ability of a test compound to inhibit this activity was determined as:
as §1
Dose dilution series were prepared for the compounds enabling the testing of dose-response effects in the JAK3 assay and the calculation of the IC50 for each compound.

[5] = tested on: JAK1-dependent pathway (IL-6 stimulated STAT1 phosphorylation in CD4+ lymphocytes) in human whole blood; experiment: cells; conditions: Lymphocyte, read-out: pIC50 in the inhibition of STAT1 phosphorylation (converted)
Procedure: Therefore, blood was taken from human volunteers who gave informed consent. Blood was then equilibrated for 30 minutes at 37° C. under gentle rocking, then aliquoted in Eppendorf tubes. Compound was added at different concentrations and incubated at 37° C. for 30 minutes under gentle rocking and subsequently stimulated for 20 minutes at 37° C. under gentle rocking with interleukin 6 (IL-6) for JAK1-dependent pathway stimulation or GM-CSF for JAK2-dependent pathway stimulation. Phospho-STAT1 and phospho-STAT5 were then evaluated using FACS analysis.
The increase in phosphorylation of STAT1 by IL-6 in lymphocytes was measured using anti phospho-STAT1 antibody by FACS.
A 3-fold dilution series of the compound was prepared in DMSO (10 mM stock solution). Control-treated samples received DMSO instead of compound. All samples were incubated with a 1% final DMSO concentration.
Human blood was collected in heparinized tubes. The blood was divided in aliquots of 148.54 μl. […]
50,000 total events were counted and Phospho-STAT1 positive cells were measured after gating on CD4+ cells, in the lymphocyte gate. Data were analyzed using the FACSDiva software and the percentage inhibition of IL-6 stimulation calculated on the percentage of positive cells for phospho-STAT1 on CD4+ cells.

[6] = target: JAK1 (Homo sapiens (Human), UniProt P23458); experiment: JAK1 inhibition assay; assay type: biochemical
Sequence of JAK1 (P23458 850-1154): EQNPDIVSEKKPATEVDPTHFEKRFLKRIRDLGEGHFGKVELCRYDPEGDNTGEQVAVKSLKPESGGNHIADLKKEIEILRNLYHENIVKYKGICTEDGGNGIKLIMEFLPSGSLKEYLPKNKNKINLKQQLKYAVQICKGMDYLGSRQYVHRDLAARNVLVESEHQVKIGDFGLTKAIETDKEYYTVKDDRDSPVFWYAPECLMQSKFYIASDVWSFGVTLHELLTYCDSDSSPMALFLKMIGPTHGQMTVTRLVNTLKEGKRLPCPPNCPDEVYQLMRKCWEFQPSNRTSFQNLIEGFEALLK
Procedure: as §2, §1
Dose dilution series were prepared for the compounds enabling the testing of dose-response effects in the JAK1 assay and the calculation of the IC50 for each compound.

[7] = 0.1 mg/kg/day, normalized score
[8] = 0.3 mg/kg/day, normalized score

O=C(Nc1nc2cccc(-c3ccc(CN4CCOCC4)cc3)n2n1)C1CC1 [Compound 2, N-(5-(4-(morpholinomethyl)phenyl)-[1,2,4]triazolo[1,5-a]pyridin-2-yl)cyclopropanecarboxamide]
Cmax ([1]; PO 10 mg/kg/day): 867 ng/mL | Tmax ([1]; PO 10 mg/kg/day): 1 h | AUC(0-t) ([1]; PO 10 mg/kg/day): 2020 ng·h/mL | half-life ([1]; PO 10 mg/kg/day): 1.17 h | Cmax ([1]; PO 30 mg/kg/day): 2630 ng/mL | Tmax ([1]; PO 30 mg/kg/day): 1 h | AUC(0-t) ([1]; PO 30 mg/kg/day): 7810 ng·h/mL | half-life ([1]; PO 30 mg/kg/day): 3.36 h | Clinical Assessment End point score ([2]; 10 mg/kg/day): * | Clinical Assessment End point score ([2]; 30 mg/kg/day): * | Larsen' Score ([2]; 30 mg/kg/day): * | Paw swelling ([2]; 30 mg/kg/day): * | normalized clinical score values ([2]; dose of 10 mg/kg): statistically significant improvements | Larsen score ([2]; dose of 30 mg/kg): statistically significant increase | paw swelling readout ([2]; dose of 30 mg/kg): statistically significant increase | IC50 [3]: 2100 nM | IC50 [4]: 2840 nM

O=C(Nc1nc2cccc(-c3ccc(CN4CCS(=O)(=O)CC4)cc3)n2n1)C1CC1 [Compound 1, Cyclopropanecarboxylic acid {5-[4-(1,1-dioxo-1-thiomorpholin-4-ylmethyl)-phenyl]-[1,2,4]triazolo [1,5-a]pyridin-2-yl}-amide]
Cmax ([1]; PO 0.1 mg/kg/day): 5.18 ng/mL | Tmax ([1]; PO 0.1 mg/kg/day): 3 h | AUC(0-t) ([1]; PO 0.1 mg/kg/day): 30 ng·h/mL | Cmax ([1]; PO 0.3 mg/kg/day): 19.3 ng/mL | Tmax ([1]; PO 0.3 mg/kg/day): 1 h | AUC(0-t) ([1]; PO 0.3 mg/kg/day): 163 ng·h/mL | Cmax ([1]; PO 1 mg/kg/day): 102 ng/mL | Tmax ([1]; PO 1 mg/kg/day): 1 h | AUC(0-t) ([1]; PO 1 mg/kg/day): 931 ng·h/mL | half-life ([1]; PO 1 mg/kg/day): 3.6 h | Cmax ([1]; PO 3 mg/kg/day): 363 ng/mL | Tmax ([1]; PO 3 mg/kg/day): 1 h | AUC(0-t) ([1]; PO 3 mg/kg/day): 1930 ng·h/mL | half-life ([1]; PO 3 mg/kg/day): 5.6 h | Cmax ([1]; PO 10 mg/kg/day): 1170 ng/mL | Tmax ([1]; PO 10 mg/kg/day): 1 h | AUC(0-t) ([1]; PO 10 mg/kg/day): 7170 ng·h/mL | half-life ([1]; PO 10 mg/kg/day): 4.5 h | Cmax ([1]; PO 30 mg/kg/day): 3800 ng/mL | Tmax ([1]; PO 30 mg/kg/day): 1 h | AUC(0-t) ([1]; PO 30 mg/kg/day): 27800 ng·h/mL | half-life ([1]; PO 30 mg/kg/day): 3.9 h | improvement in efficacy over Compound 2 when the oral doses are compared [2]: 100 fold | Clinical Assessment AUC Score [2, 7]: * | Clinical Assessment End point score [2, 7]: * | Paw swelling ([2]; 0.3 mg/kg/day): * | Clinical Assessment AUC Score [2, 8]: * | Clinical Assessment End point score [2, 8]: * | Paw swelling ([2]; 1 mg/kg/day): * | Clinical Assessment AUC Score ([2]; 1 mg/kg/day, normalized score): * | Clinical Assessment End point score ([2]; 1 mg/kg/day, normalized score): * | Larsen' Score ([2]; 3 mg/kg/day): * | Paw swelling ([2]; 3 mg/kg/day): * | Clinical Assessment AUC Score ([2]; 3 mg/kg/day, normalized score): * | Clinical Assessment End point score ([2]; 3 mg/kg/day, normalized score): * | normalized clinical score values (AUC or difference from day 1 to day 14) ([2]; dose of 0.1 mg/kg): statistically significant improvements | paw swelling readout ([2]; dose of 0.3 mg/kg): statistically significant increase | Larsen score ([2]; dose of 3 mg/kg): statistically significant increase | IC50 [5]: 832 nM

O=C(Nc1nc2cccc(-c3ccc(C(=O)N4CCS(=O)(=O)CC4)cc3)n2n1)C1CC1 [Compound 10, Cyclopropanecarboxylic acid {5-[4-(1,1-dioxo-1-thiomorpholine-4-carbonyl)-phenyl]-[1,2,4]triazolo [1,5-a]pyridin-2-yl}-amide]
IC50 [6]: 18.2 nM

O=C(Nc1nc2cccc(-c3ccc(CN4CCC(F)(F)CC4)cc3)n2n1)C1CC1 [Compound 11, Cyclopropanecarboxylic acid {5-[4-(4,4-difluoro-piperidin-1-ylmethyl)-phenyl]-[1,2,4]triazolo [1,5-a]pyridin-2-yl}-amide]
IC50 [6]: 7.69 nM | IC50 [3]: 126 nM | IC50 [4]: 195 nM
